Test results published in patent publication US20160367685A1, “DUPA-INDENOISOQUINOLINE CONJUGATES” (PURDUE RESEARCH FOUNDATION, priority 2013, published 2016).
pIC50, pKi: −log10 of the molar value. Entries after “also recorded” stand apart in the source; their conditions may differ. Read-outs that look alike come from different tables or passages of the source. Blank lines part the entries; values can stand above or below the compound they belong to.

Key:
Top1 = target: T1, Top1 (Homo sapiens, UniProt P11387); experiment: Top1-mediated DNA cleavage assay; format: biochemical; design: key: 0: no inhibitory activity; +: between 20% and 50% activity; ++: between 50% and 75% activity; +++: between 75% and 95% activity; ++++: equipotent; +++++: more potent; conditions: graded relative to 1 μM camptothecin
T1 sequence (P11387 1-765): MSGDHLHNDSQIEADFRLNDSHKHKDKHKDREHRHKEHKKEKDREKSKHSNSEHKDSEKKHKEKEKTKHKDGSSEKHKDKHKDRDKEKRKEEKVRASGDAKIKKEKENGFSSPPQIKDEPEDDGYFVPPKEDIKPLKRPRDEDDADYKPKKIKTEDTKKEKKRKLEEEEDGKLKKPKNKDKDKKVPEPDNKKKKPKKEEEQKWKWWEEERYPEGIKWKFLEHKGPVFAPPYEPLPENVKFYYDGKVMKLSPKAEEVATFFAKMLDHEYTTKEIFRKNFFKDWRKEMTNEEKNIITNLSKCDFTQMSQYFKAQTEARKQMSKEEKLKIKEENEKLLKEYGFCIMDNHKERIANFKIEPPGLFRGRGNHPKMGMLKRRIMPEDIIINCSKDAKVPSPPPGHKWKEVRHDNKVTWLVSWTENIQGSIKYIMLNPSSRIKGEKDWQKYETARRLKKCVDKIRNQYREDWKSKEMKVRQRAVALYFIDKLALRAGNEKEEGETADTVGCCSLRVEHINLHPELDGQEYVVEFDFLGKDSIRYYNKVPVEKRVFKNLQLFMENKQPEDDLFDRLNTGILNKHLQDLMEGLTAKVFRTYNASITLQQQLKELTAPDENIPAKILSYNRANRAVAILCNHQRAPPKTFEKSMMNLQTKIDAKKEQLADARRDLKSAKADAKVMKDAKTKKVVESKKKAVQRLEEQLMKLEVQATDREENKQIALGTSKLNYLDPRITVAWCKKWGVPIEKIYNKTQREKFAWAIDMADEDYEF

[1] = system: NCI panel of 60 human cancer cell lines; experiment: Cytotoxicity mean-graph midpoint in NCI panel of 60 cancer cell lines; format: cell-based; conditions: for MGM (μM), cytotoxicity mean-graph midpoint: approximate average of GI50 across the panel
LNCap cell cultures = experiment: Cytotoxicity in LNCap cell cultures; format: cell-based; conditions: LNCap cell cultures (FIG. 3)
Description: The excellent cytotoxicities of the DUPA conjugates served as an indication that the disulfide reduction and conversion of the intermediates to the base drugs (6 and 18) are occurring intracellularly. Although an increase in potency has not been observed yet, this encouraging result partially supported our initial hypothesis, and urged further optimization of the peptide linker to facilitate the drug releasing mechanism.

PSMA = PSMA ligand, literature value; cited from earlier work
22RV1 cells = experiment: cells; format: cell-based, human; conditions: for pIC50: read-out: IC50
Description: 22RV1 cells were seeded in 24-well (50000 cells/well) Falcon plates and allowed to form monolayers over a period of 24-48 h. The old medium was replaced with fresh medium (0.5 mL) containing increasing concentrations of drug (either targeted or non-targeted) and cells were incubated for an additional 2 h and 24 h (in the case of targeted drug) at 37° C. Cells were washed (3×0.5 mL) with fresh medium and incubated in fresh medium (0.5 mL) for another 66 h at 37° C. The spent medium in each well was replaced with fresh medium (0.5 mL) containing [^3H]-thymidine (1 mCi/mL), and the cells were incubated for additional 4 h at 37° C. to allow [^3H]-thymidine incorporation. The cells were then washed with medium (2×0.5 mL) and treated with 5% trichloroacetic acid (0.5 mL) for 10 min at room temperature. The trichloroacetic acid was replaced with 0.25 N NaOH (0.5 mL) and the cells were transferred to individual scintillation vials containing Ecolume scintillation cocktail (3.0 mL), mixed well to form homogeneous liquid, and counted in a liquid scintillation analyzer. IC50 values were calculated by plotting %[^3H]-thymidine incorporation versus log concentration of drugs (targeted and non-targeted) using in GraphPad Prism 4.
The IC50 value of the indenoisoquinoline 18 itself was 2.0 nM when determined after a 2 h incubation. […] An increase in potency of 86 relative to 18 was not observed. […] However, the potential value of the conjugate 86 is lack of cytotoxicity in “normal” cells, which would result in 86 being a less toxic anticancer drug.

22RV1 tumors = experiment: 22RV1 xenograft-bearing mice therapy study; conditions: for tumor growth during the treatment period: alternate days; for tumor growth during the treatment period / toxicity to the animals: 3 days/week for 3 weeks; for toxicity to the animals / body weight during the treatment period: 40 nmol/mouse IP; for body weight during the treatment period: live mice, 3 days/week for 3 weeks (FIG. 6)
[2] = Water solubility at room temperature; format: physicochemical
[3] = Table 1, average of two determinations

SMILES: Cl.NCCCn1c2c(c3ccc([N+](=O)[O-])cc3c1=O)C(=O)c1cc3c(cc1-2)OCO3 [Compound 16, 6-(3-Aminopropyl)-5,6-dihydro-8,9-methylenedioxy-3-nitro-5,11-dioxo-11H-indeno[1,2-c]isoquinoline Hydrochloride]
Top1 inhibitory activity (Top1; Table 1): ++++ | MGM (μM), cytotoxicity mean-graph midpoint [1, 3]: 0.090 µM

SMILES: O=C(O)CCC(NC(=O)NC(CCC(=O)O)C(=O)O)C(=O)O (stereo not drawn) [DUPA, 2-[3-(1,3-Dicarboxypropyl)-Ureido]Pentanedioic Acid]
pIC50 (PSMA): 7.33 | pKi (PSMA): 8.10

SMILES: COc1cc2c(cc1O)C(=O)c1c-2n(CCCN2CCOCC2)c(=O)c2cc(OC)c(OC)cc12 [Compound 18]
cytotoxicities (LNCap cell cultures): low nanomolar range | pIC50 (22RV1 cells; Homo sapiens, 2 h incubation): 8.70 | tumor growth during the treatment period (22RV1 tumors; 40 nmol/mouse (2.0 μmol/kg) IP): regression of tumor growth | toxicity to the animals (22RV1 tumors): toxic | body weight during the treatment period (22RV1 tumors): retained their normal body weights | Top1 inhibitory activity (Top1): +++++ | GI50 ([1]; Homo sapiens, NCI's panel of 60 cancer cell lines, read-out: cytotoxicity mean-graph midpoint (MGM) GI50 value): 87 nM

SMILES: COc1cc2c3c(n(CCCN4CCOCC4)c(=O)c2cc1OC)-c1cc(OC)c(OC(=O)OCCSSC[C@H](NC(=O)[C@H](CC(=O)O)NC(=O)[C@@H](N)CNC(=O)[C@H](Cc2ccccc2)NC(=O)[C@H](Cc2ccccc2)NC(=O)CCCCCCCNC(=O)CC[C@H](NC(=O)N[C@@H](CCC(=O)O)C(=O)O)C(=O)O)C(=O)O)cc1C3=O [Compound 86, (8R,11S,14S,18S,21S,35S,39S)-14-Amino-18,21-dibenzyl-11-(carboxymethyl)-1,10,13,17,20,23,32,37-octaoxo-1-((2,3,8-trimethoxy-6-(3-morpholinopropyl)-5,11-dioxo-6,11-dihydro-5H-indeno[1,2-c]isoquinolin-9-yl)oxy)-2-oxa-5,6-dithia-9,12,16,19,22,31,36,38-octaazahentetracontane-8,35,39,41-tetracarboxylic Acid]
cytotoxicities (LNCap cell cultures): low nanomolar range | pIC50 (22RV1 cells; 24-hour incubation): 7.94 | IC50 (22RV1 cells; 2 h incubation): no activity | deaths of animals during the treatment period (22RV1 tumors; 40 nmol/mouse (2.0 μmol/kg) IP, 5 mice per group): not lethal; also recorded: no deaths | tumor growth during the treatment period (22RV1 tumors; 40 nmol/mouse (2.0 μmol/kg) IP): cessation of tumor growth | toxicity to the animals (22RV1 tumors): non-toxic | antitumor activity in competition group (22RV1 tumors; 86 at 40 nmol/mouse IP plus PSMA competitor 28 in 10-fold excess): complete loss of activity | body weight during the treatment period (22RV1 tumors): retained their normal body weights | solubility in water [2]: dissolved easily | solubility in water ([2]; listed as 30): dissolve completely and easily

SMILES: COc1cc2c3c(n(CCCN4CCOCC4)c(=O)c2cc1OC)-c1cc2c(cc1C3=O)OCO2 [drawing 73]
Top1 inhibitory activity (Top1; Table 2): ++++ | MGM (μM), cytotoxicity mean-graph midpoint ([1]; Table 2): 0.079 µM

SMILES: NCCCn1c2c(c3ccc([N+](=O)[O-])cc3c1=O)C(=O)c1cc3c(cc1-2)OCO3
Top1 inhibitory activity (Top1; Table 2): ++++ | MGM (μM), cytotoxicity mean-graph midpoint ([1]; Table 2): 0.090 µM

SMILES: COc1cc2c3c(n(CCCN4CCOCC4)c(=O)c2cc1OC)-c1cc2c(cc1C3=O)OCO2 [drawing 72]
Top1 inhibitory activity (Top1; Table 2): ++++ | MGM (μM), cytotoxicity mean-graph midpoint ([1]; Table 2): 4.64 µM

SMILES: COc1ccc2c(c1)C(=O)c1c-2n(CCCNC(=O)OCCSSC[C@H](NC(=O)[C@H](CC(=O)O)NC(=O)[C@@H](N)CNC(=O)[C@H](Cc2ccccc2)NC(=O)[C@H](Cc2ccccc2)NC(=O)CCCCCCCNC(=O)CC[C@H](NC(=O)N[C@@H](CCC(=O)O)C(=O)O)C(=O)O)C(=O)O)c(=O)c2cc([N+](=O)[O-])ccc12 [Compound 84, (12R,15S,18S,22S,25S,39S,43S)-18-Amino-22,25-dibenzyl-15-(carboxymethyl)-1-(9-methoxy-3-nitro-5,11-dioxo-5,11-dihydro-6H-indeno[1,2-c]isoquinolin-6-yl)-5,14,17,21,24,27,36,41-octaoxo-6-oxa-9,10-dithia-4,13,16,20,23,26,35,40,42-nonaazapentatetracontane-12,39,43,45-tetracarboxylic acid]
cytotoxicities (LNCap cell cultures): low nanomolar range | solubility in water [2]: dissolve completely and easily

SMILES: NCCCn1c2c(c3ccc(Br)cc3c1=O)C(=O)c1cc3c(cc1-2)OCO3
Top1 inhibitory activity (Top1; Table 2): ++++ | MGM (μM), cytotoxicity mean-graph midpoint ([1]; Table 2): 0.329 µM

Second part, led by results:

Top1 inhibitory activity (Top1; Table 1): ++++
SMILES: COc1ccc2c(c1)C(=O)c1c-2n(CCCN)c(=O)c2cc([N+](=O)[O-])ccc12 [Compound 6]
cytotoxicities (LNCap cell cultures): low nanomolar range | MGM (μM), cytotoxicity mean-graph midpoint [1, 3]: 0.047 µM

Top1 inhibitory activity (Top1; Table 1): + (between 20% and 50% activity)
SMILES: Br.COc1cc2c(cc1O)C(=O)c1c-2n(CCCn2ccnc2)c(=O)c2cc([N+](=O)[O-])ccc12 [Compound 14, 6-(3-(1H-Imidazol-1-yl)propyl)-9-hydroxy-8-methoxy-3-nitro-5H-indeno[1,2-c]isoquinoline-5,11(6H)-dione hydrobromide]
MGM (μM), cytotoxicity mean-graph midpoint [1, 3]: 0.019 µM

Top1 inhibitory activity (Top1; Table 1): ++ (between 50% and 75% activity)
SMILES: Br.COc1cc2c(cc1O)C(=O)c1c-2n(CCCN)c(=O)c2cc([N+](=O)[O-])ccc12 [Compound 12, 6-(3-Aminopropyl)-9-hydroxy-8-methoxy-3-nitro-5H-indeno[1,2-c]isoquinoline-5,11(6H)-dione hydrobromide]
MGM (μM), cytotoxicity mean-graph midpoint [1, 3]: 0.019 µM

Top1 inhibitory activity (Top1; Table 1): ++++
SMILES: COc1ccc2c(c1)C(=O)c1c-2n(CCCNCCO)c(=O)c2cc([N+](=O)[O-])ccc12 [Compound 15]
MGM (μM), cytotoxicity mean-graph midpoint [1, 3]: 0.016 µM

Top1 inhibitory activity (Top1; Table 1): ++ (between 50% and 75% activity)
SMILES: Br.COc1cc2c(cc1O)C(=O)c1c-2n(CCCN2CCOCC2)c(=O)c2cc([N+](=O)[O-])ccc12 [Compound 13, 9-Hydroxy-8-methoxy-6-(3-morpholinopropyl)-3-nitro-5H-indeno[1,2-c]isoquinoline-5,11(6H)-dione hydrobromide]
MGM (μM), cytotoxicity mean-graph midpoint [1, 3]: 0.021 µM
